Experiments:
Assay type in all cases: functional
[1] = tested on: K562; assay: Antiproliferative activity against human K562 cells assessed as reduction in cell viability incubated for 72 hrs by resazurin dye based assay; conditions: K562, 72 h
[2] = tested on: RS4-11; assay: Antiproliferative activity against human RS4-11 cells assessed as reduction in cell viability incubated for 72 hrs by resazurin dye based assay; conditions: RS4-11, 72 h
[3] = tested on: MV4-11; assay: Antiproliferative activity against human MV4-11 cells assessed as reduction in cell viability incubated for 72 hrs by resazurin dye based assay; conditions: MV4-11, 72 h
[4] = tested on: CCRF-CEM; assay: Antiproliferative activity against human CEM cells assessed as reduction in cell viability incubated for 72 hrs by resazurin dye based assay
[5] = tested on: ML-2; assay: Antiproliferative activity against human ML-2 cells assessed as reduction in cell viability incubated for 72 hrs by resazurin dye based assay; conditions: ML-2, 72 h
[6] = tested on: KOPN-8; assay: Antiproliferative activity against human KOPN-8 cells assessed as reduction in cell viability incubated for 72 hrs by resazurin dye based assay; conditions: KOPN-8, 72 h
[7] = tested on: SK-MEL-2; assay: Antiproliferative activity against human SK-MEL-2 cells assessed as growth inhibition at 10 uM measured after 48 hrs by NCI protocol based SRB assay relative to control; conditions: read-out: GI
[8] = tested on: MDA-MB-231; assay: Antiproliferative activity against human MDA-MB-231 cells assessed as growth inhibition at 10 uM measured after 48 hrs by NCI protocol based SRB assay relative to control; conditions: read-out: GI
[9] = tested on: OVCAR-8; assay: Antiproliferative activity against human OVCAR-8 cells assessed as growth inhibition at 10 uM measured after 48 hrs by NCI protocol based SRB assay relative to control; conditions: read-out: GI
[10] = tested on: HCT-116; assay: Antiproliferative activity against human HCT-116 cells assessed as growth inhibition at 10 uM measured after 48 hrs by NCI protocol based SRB assay relative to control; conditions: read-out: GI
[11] = tested on: SN12C; assay: Antiproliferative activity against human SN12C cells assessed as growth inhibition at 10 uM measured after 48 hrs by NCI protocol based SRB assay relative to control; conditions: read-out: GI
[12] = tested on: SK-OV-3; assay: Antiproliferative activity against human SK-OV-3 cells assessed as growth inhibition at 10 uM measured after 48 hrs by NCI protocol based SRB assay relative to control; conditions: read-out: GI
[13] = tested on: MDA-MB-435; assay: Antiproliferative activity against human MDA-MB-435 cells assessed as growth inhibition at 10 uM measured after 48 hrs by NCI protocol based SRB assay relative to control; conditions: read-out: GI
[14] = tested on: ACHN; assay: Antiproliferative activity against human ACHN cells assessed as growth inhibition at 10 uM measured after 48 hrs by NCI protocol based SRB assay relative to control; conditions: read-out: GI
[15] = tested on: HOP-92; assay: Antiproliferative activity against human HOP-92 cells assessed as growth inhibition at 10 uM measured after 48 hrs by NCI protocol based SRB assay relative to control; conditions: read-out: GI
[16] = tested on: CCRF-CEM; assay: Antiproliferative activity against human CCRF-CEM cells assessed as growth inhibition at 10 uM measured after 48 hrs by NCI protocol based SRB assay relative to control; conditions: read-out: GI
[17] = tested on: HT-29; assay: Antiproliferative activity against human HT-29 cells assessed as growth inhibition at 10 uM measured after 48 hrs by NCI protocol based SRB assay relative to control; conditions: read-out: GI
[18] = tested on: SNB-19; assay: Antiproliferative activity against human SNB-19 cells assessed as growth inhibition at 10 uM measured after 48 hrs by NCI protocol based SRB assay relative to control; conditions: read-out: GI
[19] = tested on: RPMI-8226; assay: Antiproliferative activity against human RPMI-8226 cells assessed as growth inhibition at 10 uM measured after 48 hrs by NCI protocol based SRB assay relative to control; conditions: read-out: GI
[20] = tested on: UO-31; assay: Antiproliferative activity against human UO-31 cells assessed as growth inhibition at 10 uM measured after 48 hrs by NCI protocol based SRB assay relative to control; conditions: read-out: GI
[21] = tested on: KM12; assay: Antiproliferative activity against human KM12 cells assessed as growth inhibition at 10 uM measured after 48 hrs by NCI protocol based SRB assay relative to control; conditions: read-out: GI
[22] = tested on: SK-MEL-5; assay: Antiproliferative activity against human SK-MEL-5 cells assessed as growth inhibition at 10 uM measured after 48 hrs by NCI protocol based SRB assay relative to control; conditions: read-out: GI
[23] = tested on: MCF7; assay: Antiproliferative activity against human MCF7 cells assessed as growth inhibition at 10 uM measured after 48 hrs by NCI protocol based SRB assay relative to control; conditions: read-out: GI
[24] = tested on: PC-3; assay: Antiproliferative activity against human PC-3 cells assessed as growth inhibition at 10 uM measured after 48 hrs by NCI protocol based SRB assay relative to control; conditions: read-out: GI
[25] = tested on: SR; assay: Antiproliferative activity against human SR cells assessed as growth inhibition at 10 uM measured after 48 hrs by NCI protocol based SRB assay relative to control; conditions: read-out: GI
[26] = tested on: T47D; assay: Antiproliferative activity against human T47D cells assessed as growth inhibition at 10 uM measured after 48 hrs by NCI protocol based SRB assay relative to control; conditions: read-out: GI
[27] = tested on: HCT-15; assay: Antiproliferative activity against human HCT-15 cells assessed as growth inhibition at 10 uM measured after 48 hrs by NCI protocol based SRB assay relative to control; conditions: read-out: GI
[28] = tested on: UACC-257; assay: Antiproliferative activity against human UACC-257 cells assessed as growth inhibition at 10 uM measured after 48 hrs by NCI protocol based SRB assay relative to control; conditions: read-out: GI
[29] = tested on: CAKI-1; assay: Antiproliferative activity against human CAKI-1 cells assessed as growth inhibition at 10 uM measured after 48 hrs by NCI protocol based SRB assay relative to control; conditions: read-out: GI
[30] = tested on: SW-620; assay: Antiproliferative activity against human SW-620 cells assessed as growth inhibition at 10 uM measured after 48 hrs by NCI protocol based SRB assay relative to control; conditions: read-out: GI
[31] = tested on: A549; assay: Antiproliferative activity against human A549 cells assessed as growth inhibition at 10 uM measured after 48 hrs by NCI protocol based SRB assay relative to control; conditions: read-out: GI
[32] = tested on: UACC-62; assay: Antiproliferative activity against human UACC-62 cells assessed as growth inhibition at 10 uM measured after 48 hrs by NCI protocol based SRB assay relative to control; conditions: read-out: GI
[33] = tested on: K562; assay: Antiproliferative activity against human K562 cells assessed as growth inhibition at 10 uM measured after 48 hrs by NCI protocol based SRB assay relative to control; conditions: read-out: GI
[34] = tested on: NCI/ADR-RES; assay: Antiproliferative activity against human NCl/ADR-RES cells assessed as growth inhibition at 10 uM measured after 48 hrs by NCI protocol based SRB assay relative to control; conditions: read-out: GI
[35] = tested on: OVCAR-4; assay: Antiproliferative activity against human OVCAR-4 cells assessed as growth inhibition at 10 uM measured after 48 hrs by NCI protocol based SRB assay relative to control; conditions: read-out: GI
[36] = tested on: NCI-H522; assay: Antiproliferative activity against human NCI-H522 cells assessed as growth inhibition at 10 uM measured after 48 hrs by NCI protocol based SRB assay relative to control; conditions: read-out: GI
[37] = tested on: EKVX; assay: Antiproliferative activity against human EKVX cells assessed as growth inhibition at 10 uM measured after 48 hrs by NCI protocol based SRB assay relative to control; conditions: read-out: GI
[38] = tested on: MOLT-4; assay: Antiproliferative activity against human MOLT-4 cells assessed as growth inhibition at 10 uM measured after 48 hrs by NCI protocol based SRB assay relative to control; conditions: read-out: GI
[39] = tested on: MDA-MB-468; assay: Antiproliferative activity against human MDA-MB-468 cells assessed as growth inhibition at 10 uM measured after 48 hrs by NCI protocol based SRB assay relative to control; conditions: read-out: GI
[40] = tested on: SF-268; assay: Antiproliferative activity against human SF-268 cells assessed as growth inhibition at 10 uM measured after 48 hrs by NCI protocol based SRB assay relative to control; conditions: read-out: GI
[41] = tested on: 786-0; assay: Antiproliferative activity against human 786-0 cells assessed as growth inhibition at 10 uM measured after 48 hrs by NCI protocol based SRB assay relative to control; conditions: read-out: GI
[42] = tested on: SF-539; assay: Antiproliferative activity against human SF-539 cells assessed as growth inhibition at 10 uM measured after 48 hrs by NCI protocol based SRB assay relative to control; conditions: read-out: GI
[43] = tested on: NCI-H460; assay: Antiproliferative activity against human NCI-H460 cells assessed as growth inhibition at 10 uM measured after 48 hrs by NCI protocol based SRB assay relative to control; conditions: read-out: GI
[44] = tested on: IGROV-1; assay: Antiproliferative activity against human IGROV-1 cells assessed as growth inhibition at 10 uM measured after 48 hrs by NCI protocol based SRB assay relative to control; conditions: read-out: GI
[45] = tested on: U-251; assay: Antiproliferative activity against human U-251 cells assessed as growth inhibition at 10 uM measured after 48 hrs by NCI protocol based SRB assay relative to control; conditions: read-out: GI
[46] = tested on: NCI-H226; assay: Antiproliferative activity against human NCI-H226 cells assessed as growth inhibition at 10 uM measured after 48 hrs by NCI protocol based SRB assay relative to control; conditions: read-out: GI
[47] = tested on: SNB-75; assay: Antiproliferative activity against human SNB-75 cells assessed as growth inhibition at 10 uM measured after 48 hrs by NCI protocol based SRB assay relative to control; conditions: read-out: GI

N#Cc1c(-c2ccccc2)nc2c(c(-c3ccccc3)nn2-c2ccccc2)c1-c1ccc2c(c1)OCO2
IC50 [1]: 5.9 µM
IC50 [2]: > 25 µM
IC50 [3]: > 25 µM
IC50 [4]: > 25 µM
IC50 [5]: > 25 µM
IC50 [6]: > 25 µM

COc1cc(-c2c(C#N)c(-c3ccco3)nc3c2c(-c2ccccc2)nn3-c2ccccc2)ccc1O
inhibition of growth at 10 µM [7]: 11%
inhibition of growth at 10 µM [8]: 17%
inhibition of growth at 10 µM [9]: 15%
inhibition of growth at 10 µM [10]: 43%
inhibition of growth at 10 µM [11]: 18%
inhibition of growth at 10 µM [12]: 15%
inhibition of growth at 10 µM [13]: 23%
inhibition of growth at 10 µM [14]: 12%
inhibition of growth at 10 µM [15]: 33%
inhibition of growth at 10 µM [16]: 25%
inhibition of growth at 10 µM [17]: 15%
inhibition of growth at 10 µM [18]: 13%
IC50 [1]: 24.9 µM
inhibition of growth at 10 µM [19]: 21%
inhibition of growth at 10 µM [20]: 27%
inhibition of growth at 10 µM [21]: 15%
inhibition of growth at 10 µM [22]: 20%
inhibition of growth at 10 µM [23]: 34%
inhibition of growth at 10 µM [24]: 41%
inhibition of growth at 10 µM [25]: 34%
inhibition of growth at 10 µM [26]: 34%
IC50 [3]: 35.3 µM
inhibition of growth at 10 µM [27]: 28%
inhibition of growth at 10 µM [28]: 16%
IC50 [4]: 36.5 µM
inhibition of growth at 10 µM [29]: 29%
inhibition of growth at 10 µM [30]: 11%
inhibition of growth at 10 µM [31]: 39%
inhibition of growth at 10 µM [32]: 18%
inhibition of growth at 10 µM [33]: 32%
inhibition of growth at 10 µM [34]: 19%
inhibition of growth at 10 µM [35]: 19%
inhibition of growth at 10 µM [36]: 30%
inhibition of growth at 10 µM [37]: 31%
inhibition of growth at 10 µM [38]: 47%
inhibition of growth at 10 µM [39]: 14%
inhibition of growth at 10 µM [40]: 25%
inhibition of growth at 10 µM [41]: 26%
inhibition of growth at 10 µM [42]: 13%
inhibition of growth at 10 µM [43]: 28%
inhibition of growth at 10 µM [44]: 13%
inhibition of growth at 10 µM [45]: 15%
inhibition of growth at 10 µM [46]: 15%
inhibition of growth at 10 µM [47]: 27%
